Earlier results in patent US11896701B2, “Method for dyeing keratin material, comprising the use of an organic C1-C6 alkoxy silane and tannic acid” (Henkel AG & Co. KGaA, priority 2019, dated 2024).
Values after ≈ are worked out from the molar mass of the structure shown.

Details: 25° C.

Row | SMILES | solubility in water (in words) | solubility in water
1 | O=C(O)C1=NN(c2ccc(S(=O)(=O)O)cc2)C(=O)C1N=Nc1ccc(S(=O)(=O)O)cc1 (stereo not shown) [Acid Yellow 23, 4,5-dihydro-5-oxo-1-(4-sulfophenyl)-4-((4-sulfophenyl)azo)-1H-pyrazole-3-carboxylic acid] | readily soluble in water | –
2 | O=[N+]([O-])c1cc([N+](=O)[O-])c2ccc(S(=O)(=O)O)cc2c1O [Acid Yellow 9, 8-hydroxy-5,7-dinitro-2-naphthalenesulfonic acid] | – | above 40 g/L
3 | O=S(=O)(O)c1ccc(N=Nc2c(O)ccc3ccccc23)cc1 [Acid Orange 7, 4-[(2-hydroxy-1-naphthyl)azo]benzenesulfonate] | – | more than 7 g/L
4 | Nc1cc(S(=O)(=O)O)cc2cc(S(=O)(=O)O)c(N=Nc3ccccc3)c(O)c12 [Acid Red 33, 5-amino-4-hydroxy-3-(phenylazo)-naphthalene-2,7-disulphonate] | – | 2500 µg/mL (≈ 5.9 mM)
